This note sets out measurements from patent US20240317761A1, “PHARMACEUTICALLY ACCEPTABLE SALT OF MOR RECEPTOR AGONIST, AND POLYMORPH THEREOF AND USE THEREOF” (SHANGHAI HAIYAN PHARMACEUTICAL TECHNOLOGY CO., LTD., priority 2021, published 2024).

Experiment [1] concerns the target T1, OPRM1 (MOR) in PathHunter CHO-K1 OPRM1 β-Arrestin Cell Line (Homo sapiens, UniProt P35372).
T1 construct: host or cells: CHO-K1 (PathHunter engineered line, lot 13K0402)
The experiment is described as follows: β-Arrestin cell assay. It counts as cell-based. The method, then:
The cell line used in the following tests was PathHunter® CHO-K1 OPRM1 β-Arrestin Cell Line; origin: DiscoverX, No: 93-0213 C2; lot: 13K0402. […]
The instruments used, their models and suppliers are as follows: • Countsatr BioMed, IM1200, ALIT; • Microscope, IX51, OLYMPUS; • Centrifuge, 5804, Eppendorf; • Thermostatic Water Bath, DK-S420, ShanghaiShenxian thermostatic equipment factory; • Cell Incubator, 3111, Thermo; • Biological Safety Cabinet, BSC-1300IIA2, AIRTECH; • OptiPlate-384White Opaque, 6007290, Perkin Elmer; • Multimode plate Reader, Victor X5, PerkinElmer; • Culture Plate-384 White Opaque, TC-treated, 6007680, PerkinElmer. […]
1. 20 μl of the cell suspension was pipetted using a pipette and the number of the cells was measured using a cell counter. […]
3. At the end of incubation, the plates were read using a multi-function plate reader.
The data were exported from the corresponding software in the computer connected with the multi-function plate reader, and the data were analyzed by using GraphPad Prism software. […]

Experiment [2] addresses T1, OPRM1 (MOR) in PathHunter CHO-K1 OPRM1 β-Arrestin Cell Line. Description: HTRF-cAMP cell assay. It counts as cell-based. As for the experimental part:
The cell line used in the following tests was PathHunter® CHO-K1 OPRM1 β-Arrestin Cell Line; origin: DiscoverX, No: 93-0213 C2; lot: 13K0402.
The reagents used, their suppliers, article numbers, and storage temperatures are as follows: • Assay Complete™ Cell Culture Kit 107, DiscoverX, 92-3107G, −20° C.; • AssayComplete™ Thawing Reagent, DiscoverX, 92-4002TR, −20° C.; • AssayComplete™ Cell Detachment Reagent, DiscoverX, 92-0009, −20° C.; • Assay Complete™ Cell Plating Reagent, DiscoverX, 93-0563R2, −20° C.; • PathhunterDetection Kit, DiscoverX, 93-0001, −20° C.; • PBS(1×)0.0067M(PO4), Hyclone, SH30256.01, 4° C.; • DMSO, Sigma, D5879-100 ML, ambient temperature; • NKH477, Sigma, 1603, −20° C.; and • IBMX, Tocris, 15879, −20° C.
The instruments used, their models and suppliers are as follows: • Countsatr BioMed, IM1200, ALIT; • Microscope, IX51, OLYMPUS; • Centrifuge, 5804, Eppendorf; • Thermostatic Water Bath, DK-S420, ShanghaiShenxian thermostatic equipment factory; • Cell Incubator, 3111, Thermo; • Biological Safety Cabinet, BSC-1300IIA2, AIRTECH; • OptiPlate-384White Opaque, 6007290, Perkin Elmer; • Multimode plate Reader, Victor X5, PerkinElmer; • Culture Plate-384 White Opaque, TC-treated, 6007680, PerkinElmer.
1. Cell passaging steps a to h were repeated until the cells passed to the P8 generation. Cells were counted and resuspended in 2×/1 mM IBMX stimulation buffer to a cell density of 1.2*10^6/ml.
2. 1.2*10^6/ml of cell solution was seeded in a 384-well plate in a volume of 10 μl per well (i.e. 12000 cells per well) by using a multichannel pipettor.
1. Relevant reagents were prepared and the compounds were prepared according to the drug dilution preparation table.
a. […]
g. The plate was read by HTRF.
After 60 minutes of incubation, for all samples, reading plates were detected by homogeneous time-resolved fluorescence method.
The data were exported from the corresponding software in the computer connected with the multi-function plate reader, including two signal values of 665 nm and 620 nm. The ratio is calculated as ratio=665 nm signal value/620 nm signal value×10000. […]
For orientation: In TR-FRET formats the signal depends on donor and acceptor labels being close together.

[3] abbreviates: maximum effect relative to morphine = 100%.

T1 sequence (P35372 whole entry): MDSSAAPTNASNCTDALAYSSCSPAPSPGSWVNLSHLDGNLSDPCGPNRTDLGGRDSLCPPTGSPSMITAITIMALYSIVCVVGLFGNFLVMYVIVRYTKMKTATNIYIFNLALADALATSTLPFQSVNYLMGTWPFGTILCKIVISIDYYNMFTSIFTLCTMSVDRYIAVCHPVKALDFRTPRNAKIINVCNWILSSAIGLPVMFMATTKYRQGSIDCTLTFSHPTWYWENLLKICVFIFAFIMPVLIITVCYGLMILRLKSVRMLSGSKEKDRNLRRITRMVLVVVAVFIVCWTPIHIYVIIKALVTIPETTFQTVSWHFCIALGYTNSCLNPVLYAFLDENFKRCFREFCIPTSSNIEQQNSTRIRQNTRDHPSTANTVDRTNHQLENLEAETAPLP

For `CC(C)C1CCC(NCC[C@@]2(c3ccccn3)CCOC3(CCCC3)C2)c2ccnn21` (some centres unmarked) [Comparative compound D1], the Emax is 28.3% in experiment [1] (setting [3]) and 52.6% in experiment [2] (setting [3]). The compound further registered an EC50 in experiment [2] of 19 nM.

Regarding `CC(C)[C@@H]1C[C@H](NCC[C@@]2(c3ccccn3)CCOC3(CCCC3)C2)c2ccnn21` [Compound of formula X, (4S,6S)-6-isopropyl-N-(2-((R)-9-(pyridin-2-yl)-6-oxaspiro[4.5]decane-9-yl)ethyl)-5,6-dihydro-4H-pyrrolo[1,2-b]pyrazol-4-amine], the “bias (cAMP versus β-arrestin)” value in experiment [1] (compared with comparative compound D1, from Tables 5 and 6) is given as “better bias”. A half-maximal response in experiment [2] (EC50) required 6 nM.

For orientation: Emax means the size of the effect at its maximum, as opposed to the concentration needed. A word on the EC50: it is the midpoint of the concentration-response curve. A higher EC50 goes with lower potency in that assay.
